The results in this text go back to EP0643971A2, “Antifungal compositions consisting of an antifungal agent, e.g. antibiotic R-106I, and a fungal MDR inhibitor” (priority 1993, dated 1995).

The assay deals with Penicillium chrysogenum. Nature of the assay: Potentiation of hygromycin B toxicity by trifluoroperazine, growth of regenerating protoplasts on agar. Type of assay: cell-based. On the set-up: key to Growth: +: growth of the Penicillium chrysogenum cells, and therefore, that the toxic effect of hygromycin B was not potentiated by TFP; -: no growth of the Penicillium chrysogenum culture, and therefore, that the toxic effect of hygromycin B was potentiated by trifluoroperazine. The following applies: for Growth: 28°C, 48 hours. The text has this: Protoplasts of Penicillium chrysogenum (Eli Lilly and Co.) were formed with Novozyme 234 in substantial accordance with the procedure described for Cephalosporium acremonium by Queener et al., 1985 Microbiology 1985, American Society for Microbiology, pp 468-472, and by Skatrud et al., 1987, Current Genetics, 12:337-348. During formation of the P. chrysogenum, protoplasts and subsequent cell wall regeneration, sucrose was used as an osmotic stabilizer rather than sodium chloride as described in the above references. Petri plates were prepared that contained an agar layer consisting of: yeast nitrogen base without amino acids and ammonium sulfate (1.7 g/L) (Difco Laboratories, Detroit, MI); ammonium sulfate (5 g/L); and sucrose (125 g/L); trifluoroperazine (final concentration […]; Sigma Chemical Co. Catalog #T-8516); and cadmium chloride (final concentration 3 mM/ml). Approximately 3 X 10⁷ Penicillium chrysogenum protoplasts were delivered to the surface of the solidified agar in a 4 ml soft agar overlay consisting of the following ingredients: yeast nitrogen base without amino acids and ammonium sulfate (1.7 g/L) (Difco Laboratories, Detroit, MI); ammonium sulfate (5 g/L); sucrose (125 g/L); and agar (4 g/L). The plates were incubated overnight at 15°C.
The next morning hygromycin B (final concentration […]; Boehringer Mannheim Catalog #843 555) was added to the plates in a 4 ml soft agar overlay consisting of yeast nitrogen base without amino acids and ammonium sulfate (1.7 g/L) (Difco Laboratories, Detroit, MI); ammonium sulfate (5 g/L); sucrose (125 g/L); and agar (4 g/L). The plates were incubated at 28°C for 48 hours.
In Table 2, a result of "+" indicates growth of the Penicillium chrysogenum cells, and therefore, that the toxic effect of hygromycin B was not potentiated by TFP. A result of "-" indicates no growth of the Penicillium chrysogenum culture, and therefore, that the toxic effect of hygromycin B was potentiated by trifluoroperazine.

As for `CN[C@H]1C[C@@H](N)[C@H](O)[C@@H](O[C@@H]2O[C@H](CO)[C@H](O)[C@@H]3OC4(O[C@H]23)O[C@H]([C@@H](N)CO)[C@H](O)[C@H](O)[C@H]4O)[C@@H]1O` (stereo partly drawn) [Hygromycin B, hygromycin B], the Growth entry is, setting by setting: (Hygromycin B 0.250 mg/ml, TFP 250 µM) “-”; (Hygromycin B 1 mg/ml, TFP 500 µM) “-”; (Hygromycin B 2 mg/ml, TFP 500 µM) “-”; (Hygromycin B 3 mg/ml, TFP 500 µM) “-”; (Hygromycin B 4 mg/ml, TFP 500 µM) “-”; (Hygromycin B 5 mg/ml, TFP 0 µM) “+”. For the same molecule, the Growth result (Hygromycin B 5 mg/ml, TFP 500 µM) was “-”.
As to `CN1CCN(CCCN2c3ccccc3Sc3ccc(C(F)(F)F)cc32)CC1` [TFP, trifluoroperazine], for the setting “Hygromycin B 0 mg/ml, TFP 500 µM”, the Growth result is “+”. Moreover, the “toxic effect of hygromycin B on Penicillium chrysogenum” value (in the presence of triflouroperazine, summary of Table 2) is listed as “potentiated”.
